Calls of active or inactive are those of the source. The rule behind the calls is not given here.
Legend:
[1] = test system: Rattus norvegicus; experiment: Hypoglycemic activity in fasted Sprague-Dawley rat assessed as reduction of blood glucose level at 100 mg/kg, po relative to control; assay type: functional; parameters: scale not given: the % may be the effect or the level left
[2] = test system: Rattus norvegicus; experiment: Narcotic analgesic activity in fasted Sprague-Dawley rat at 240 mg/kg, po measured at 15 mins by D'Amour-Smith tail-flick test relative to control; assay type: functional
[3] = test system: Mus musculus; experiment: Analgesic activity in Swiss-Webster mouse assessed as reduction of acetylcholine-induced writhing at 75 mg/kg, sc relative to control; assay type: functional; parameters: scale not given: the % may be the effect or the level left; details: route subcutaneous
[4] = test system: Rattus norvegicus; experiment: Hypoglycemic activity in glucose/glycogen loaded Sprague-Dawley rat assessed as reduction of blood glucose level at 87 mg/kg, po; assay type: functional, organism-based; parameters: dose 87 mg/kg
[5] = test system: Rattus norvegicus; experiment: Hypoglycemic activity in glucose loaded Sprague-Dawley rat assessed as reduction of blood glucose level at 100 mg/kg, po relative to control; assay type: functional; parameters: scale not given: the % may be the effect or the level left
[6] = test system: Rattus norvegicus; experiment: Narcotic analgesic activity in fasted Sprague-Dawley rat at 240 mg/kg, po measured at 60 mins by D'Amour-Smith tail-flick test relative to control; assay type: functional
[7] = test system: Rattus norvegicus; experiment: Hypoglycemic activity in Sprague-Dawley rat assessed as reduction of blood glucose level at 100 mg/kg, po by glucagon-impaired glucose disposal test relative to control; assay type: functional; parameters: scale not given: the % may be the effect or the level left
[8] = test system: Rattus norvegicus; experiment: Hypoglycemic activity in glucose loaded Sprague-Dawley rat assessed as reduction of blood glucose level at 89 mg/kg, po relative to control; assay type: functional; parameters: scale not given: the % may be the effect or the level left
[9] = test system: Mus musculus; experiment: Analgesic activity in Swiss-Webster mouse assessed as reduction of acetylcholine-induced writhing at 25 mg/kg, sc relative to control; assay type: functional; parameters: scale not given: the % may be the effect or the level left; details: route subcutaneous
[10] = test system: Rattus norvegicus; experiment: Toxicity in Sprague-Dawley rat assessed as rigidity at 240 mg/kg, po; assay type: organism-based; parameters: dose 240 mg/kg, route oral; details: in vivo
[11] = test system: Rattus norvegicus; experiment: Narcotic analgesic activity in fed Sprague-Dawley rat at 120 mg/kg, sc measured at 30 mins by D'Amour-Smith tail-flick test; assay type: functional; details: route subcutaneous
[12] = test system: Mus musculus; experiment: Analgesic activity in sc dosed Swiss-Webster mouse assessed as reduction of acetylcholine-induced writhing; assay type: functional
[13] = test system: Rattus norvegicus; experiment: Analgesic activity in rat assessed as protection against intraarterial bradykinin-induced pain response at 100 mg/kg, sc; assay type: functional, organism-based; parameters: dose 100 mg/kg
[14] = test system: Rattus norvegicus; experiment: Hypoglycemic activity in Sprague-Dawley rat assessed as reduction of blood glucose level at 88 mg/kg, po by glucagon-impaired glucose disposal test relative to control; assay type: functional; parameters: scale not given: the % may be the effect or the level left
[15] = test system: Rattus norvegicus; experiment: Hypoglycemic activity in glucose loaded Sprague-Dawley rat assessed as reduction of blood glucose level at 64 mg/kg, po relative to control; assay type: functional; parameters: scale not given: the % may be the effect or the level left
[16] = test system: Mus musculus; experiment: Analgesic activity in Swiss-Webster mouse assessed as reduction of acetylcholine-induced writhing at 50 mg/kg, po relative to control; assay type: functional; parameters: scale not given: the % may be the effect or the level left
[17] = test system: Rattus norvegicus; experiment: Toxicity in Sprague-Dawley rat assessed as convulsion at 240 mg/kg, po; assay type: organism-based; parameters: dose 240 mg/kg, route oral; details: in vivo
[18] = test system: Rattus norvegicus; experiment: Toxicity in Sprague-Dawley rat assessed as tremor at 240 mg/kg, po; assay type: organism-based; parameters: dose 240 mg/kg, route oral; details: in vivo
[19] = test system: Rattus norvegicus; experiment: Hypoglycemic activity in Sprague-Dawley rat assessed as reduction of blood glucose level at 89 mg/kg, po by glucagon-impaired glucose disposal test relative to control; assay type: functional; parameters: scale not given: the % may be the effect or the level left
[20] = test system: Rattus norvegicus; experiment: Hypoglycemic activity in Sprague-Dawley rat assessed as reduction of blood glucose level at 88 mg/kg, po by glucagon-impaired glucose disposal test in presence of microsomal enzyme inhibitor SKF 525-A; assay type: functional, organism-based; parameters: dose 88 mg/kg
[21] = test system: Rattus norvegicus; experiment: Narcotic analgesic activity in fasted Sprague-Dawley rat at 120 mg/kg,sc measured at 30 mins by D'Amour-Smith tail-flick test in presence of opioid antagonist nalorphine; assay type: functional, organism-based; parameters: dose 120 mg/kg
[22] = test system: Rattus norvegicus; experiment: Hypoglycemic activity in Sprague-Dawley rat assessed as reduction of blood glucose level at 88 mg/kg, po by glucagon-impaired glucose disposal test in presence of opioid antagonist nalorphine; assay type: functional, organism-based; parameters: dose 88 mg/kg
[23] = species: Rattus norvegicus; experiment: Narcotic analgesic activity in Sprague-Dawley rat at 15 mins by D'Amour-Smith tail-flick test in presence of microsomal enzyme inhibitor SKF 525-A; assay type: functional, organism-based
[24] = test system: Rattus norvegicus; experiment: Hypoglycemic activity in sc dosed fasted Sprague-Dawley rat assessed as reduction of blood glucose level measured for 0.5 to 2 hrs; assay type: functional, organism-based
[25] = test system: Rattus norvegicus; experiment: Narcotic analgesic activity in po dosed fasted Sprague-Dawley rat measured at 15 mins by D'Amour-Smith tail-flick test; assay type: functional; details: 0.25 h
[26] = test system: Mus musculus; experiment: Analgesic activity in po dosed Swiss-Webster mouse assessed as reduction of acetylcholine-induced writhing; assay type: functional
[27] = test system: Mus musculus; experiment: Toxicity in Swiss-Webster mouse assessed as stimulation of straub tail at 150 mg/kg, po after 15 to 25 mins; assay type: organism-based; parameters: dose 150 mg/kg, route oral; details: in vivo
[28] = test system: Rattus norvegicus; experiment: Narcotic analgesic activity in po dosed fasted Sprague-Dawley rat measured at 60 mins by D'Amour-Smith tail-flick test; assay type: functional; details: Rattus norvegicus, Sprague-Dawley, Tail, po, 1 h; read-out: ED50
[29] = test system: Rattus norvegicus; experiment: Hypoglycemic activity in Sprague-Dawley rat assessed as reduction of blood glucose level at 87 mg/kg, po by glucagon-impaired glucose disposal test in presence of microsomal enzyme inhibitor SKF 525-A; assay type: functional, organism-based; parameters: dose 87 mg/kg
[30] = Drug level in glucose loaded Sprague-Dawley rat urine treated with (RS-exo,exo)-8-methyl-2-(2-thienyl)-8-azabicyclo[3.2.1]octane-3-carboxylate at 20 mg, po administered 3 to 6 hrs measured for 24 hrs by TLC/mass spectrographic analysis; assay type: ADME, organism-based; details: in vivo
[31] = Drug level in glucose loaded Sprague-Dawley rat urine treated with methyl (exo,exo)-8-(l-pentyl)-2-(2-thienyl)-8-azabicyclo[3.2.1]octane-3-carboxylate at 20 mg, po administered 3 to 6 hrs measured for 24 hrs by TLC/mass spectrographic analysis; assay type: ADME, organism-based; details: in vivo
[32] = test system: Rattus norvegicus; experiment: Hypoglycemic activity in Sprague-Dawley rat assessed as reduction of blood glucose level at 87 mg/kg, po by glucagon-impaired glucose disposal test relative to control; assay type: functional; parameters: scale not given: the % may be the effect or the level left
[33] = test system: Rattus norvegicus; experiment: Toxicity in Sprague-Dawley rat assessed as tremor at 120 mg/kg, sc; assay type: organism-based; parameters: dose 120 mg/kg, route subcutaneous; details: in vivo
[34] = test system: Mus musculus; experiment: Toxicity in Swiss-Webster mouse assessed as sedation at 40 mg/kg, sc; assay type: organism-based; parameters: dose 40 mg/kg, route subcutaneous; details: in vivo
[35] = test system: Rattus norvegicus; experiment: Toxicity in Sprague-Dawley rat assessed as hyperexcitability at 240 mg/kg, po; assay type: organism-based; parameters: dose 240 mg/kg, route oral; details: in vivo
[36] = test system: Rattus norvegicus; experiment: Hypoglycemic activity in glucose loaded Sprague-Dawley rat assessed as reduction of blood glucose level at 100 mg/kg, po in presence of microsomal enzyme inhibitor SKF 525-A; assay type: functional, organism-based; parameters: dose 100 mg/kg
[37] = test system: Rattus norvegicus; experiment: Hypoglycemic activity in glucose loaded Sprague-Dawley rat assessed as reduction of blood glucose level at 89 mg/kg, po in presence of microsomal enzyme inhibitor SKF 525-A; assay type: functional, organism-based; parameters: dose 89 mg/kg
[38] = Mus musculus, Swiss-Webster, sc, read-out: ED50

## CCOC(CN1[C@@H]2CC[C@@H]1[C@@H](c1cccs1)[C@@H](C(=O)OC)C2)OCC
[1]
  Activity: 47%
[2]
  Activity: 87%
[3]
  Activity: 27%

## COC(=O)[C@H]1CCCN(C)[C@@H]1c1cccs1 (relative stereo)
[4]
  Activity: inactive

## COC(=O)[C@H]1C[C@H]2CC[C@H]([C@H]1c1cccs1)N2CC1CCCO1 (some centres not stated)
[1]
  Activity: 39%
[2]
  Activity: 72%

## CCCCCN1[C@@H]2CC[C@@H]1[C@@H](c1cccs1)[C@@H](C(=O)OCC)C2
[5]
  Activity: 61%
[6]
  Activity: 65%
[3]
  Activity: 13%

## COC(=O)[C@H]1C[C@H]2CC[C@H]([C@H]1c1ccc(O)cc1)N2C
[7]
  Activity: <20%

## COC(=O)[C@H]1C[C@H]2CC[C@H]([C@H]1c1cccs1)N2CC(N)=O.Cl
[8]
  Activity: 66%
[2]
  Activity: 72%
[9]
  Activity: 13%
[10]
  Activity: Toxic

## COC(=O)[C@H]1C[C@H]2CC[C@H]([C@H]1c1cccc(O)c1)N2C.Cl
[11]
  Activity: <20%
[12]; [38]
  ED50: 24 mg/kg
[13]
  Activity: inactive
[14]
  Activity: <20%

## COC(=O)[C@H]1C[C@H]2CC[C@H]([C@H]1c1cccs1)N2CCCO.Cc1ccc(S(=O)(=O)O)cc1
[15]
  Activity: 27%
[2]
  Activity: 92%
[16]
  Activity: 33%
[17]
  Activity: Toxic
[18]
  Activity: Toxic
[10]
  Activity: Toxic

## CC(C)OC(=O)[C@H]1C[C@H]2CC[C@H]([C@H]1c1ccccc1)N2C.Cl
[19]
  Activity: 28%

## COC(=O)[C@H]1C[C@H]2CC[C@H]([C@H]1c1cccs1)N2C (racemic)
[20]
  Activity: inactive
[21]
  Activity: inactive
[22]
  Activity: Active
[23]
  Activity: inactive
[24]
  Activity: inactive

## CCOC(=O)N(CN1[C@@H]2CC[C@@H]1[C@@H](c1cccs1)[C@@H](C(=O)OC)C2)NC(=O)OC
[5]
  Activity: 80%

## CCOC(=O)[C@H]1C[C@H]2CC[C@H]([C@H]1c1cccs1)N2C
[7]
  Activity: <20%
[25]
  ED50: 95 mg/kg
[26]
  ED50: 21 mg/kg
[27]
  Activity: Toxic

## CCCCN1[C@@H]2CC[C@@H]1[C@@H](c1cccs1)[C@@H](C(=O)OC)C2
[1]
  Activity: 34%
[2]
  Activity: 88%
[9]
  Activity: 20%

## COC(=O)[C@H]1C[C@H]2CC[C@@H](N2)[C@H]1c1cccs1.Cl
[28]
  ED50: 43 mg/kg
[12]; [38]
  ED50: 3.3 mg/kg
[29]
  Activity: Active
[30]
  Drug metabolism: metabolite_detected
[27]
  Activity: Toxic
[31]
  Drug metabolism: metabolite_detected
[32]
  Activity: 43%

## COC(=O)[C@H]1C[C@H]2CC[C@H]([C@H]1c1ccccc1)N2C.Cl (racemic)
[11]
  Activity: <20%
[12]; [38]
  ED50: 12 mg/kg
[33]
  Activity: Toxic
[34]
  Activity: Toxic
[14]
  Activity: 24%

## COC(=O)[C@H]1[C@@H](OC(=O)c2ccccc2)C[C@@H]2CC[C@H]1N2C
[14]
  Activity: Active

## CCCOC(=O)[C@H]1C[C@H]2CC[C@H]([C@H]1c1cccs1)N2C
[7]
  Activity: <20%
[6]
  Activity: <20%
[9]
  Activity: 27%

## COC(=O)[C@H]1C[C@H]2CC[C@H]([C@H]1c1cccs1)N2C
[20]
  Activity: inactive
[21]
  Activity: inactive
[22]
  Activity: Active
[23]
  Activity: inactive

## CCOCCN1[C@@H]2CC[C@@H]1[C@@H](c1cccs1)[C@@H](C(=O)OC)C2
[5]
  Activity: 73%
[2]
  Activity: 100%
[3]
  Activity: 67%
[18]
  Activity: Toxic
[10]
  Activity: Toxic
[35]
  Activity: Toxic
[36]
  Activity: inactive

## CCCCCOC(=O)[C@H]1C[C@H]2CC[C@H]([C@H]1c1cccs1)N2C
[7]
  Activity: <20%
[6]
  Activity: <20%
[2]
  Activity: <20%
[9]
  Activity: 27%

## COC(=O)[C@H]1C[C@H]2CC[C@@H](N2)[C@H]1c1cccc(O)c1.Cl
[6]
  Activity: <20%
[2]
  Activity: <20%
[12]; [38]
  ED50: 24 mg/kg
[14]
  Activity: <20%

## COC(=O)[C@H]1C[C@H]2CC[C@H]([C@H]1c1cccc(OC)c1)N2C.Cl
[19]
  Activity: 24%

## COC(=O)[C@H]1C[C@H]2CC[C@H]([C@H]1c1cccs1)N2CCc1ccccc1
[1]
  Activity: 29%
[2]
  Activity: 96%
[3]
  Activity: 27%

## COC(=O)[C@H]1C[C@H]2CC[C@H]([C@H]1c1cccs1)N2CCO.Cl
[8]
  Activity: 72%
[2]
  Activity: 100%
[3]
  Activity: 73%
[17]
  Activity: Toxic
[10]
  Activity: Toxic
[35]
  Activity: Toxic
[37]
  Activity: Active

## COC(=O)[C@H]1C[C@H]2CC[C@H]([C@H]1c1ccccc1)N2C (stereo in doubt; (+)-5)
[6]
  Activity: 59%
[12]
  ED50: 11 mg/kg
[18]
  Activity: Toxic

## COC(=O)[C@H]1C[C@H]2CC[C@H]([C@H]1c1cccs1)N2Cc1ccccc1
[7]
  Activity: <20%
[11]
  Activity: <20%
[3]
  Activity: 33%

## CC[N+]12Cc3ccsc3[C@H]3[C@@H](C(=O)OC)C[C@H]1CC[C@H]32
[7]
  Activity: <20%
[12]; [38]
  ED50: 3.8 mg/kg

Reference: ChEMBL document CHEMBL3272053, “(exo, exo)-2-Aryltropane-3-carboxylic esters, hypoglycemic agents with accompanying analgesic activity” (J Med Chem, 1978)
